Test results as given in US7491827B2, “Aryl sulfonamides useful as inhibitors of chemokine receptor activity” (Millennium Pharmaceuticals, Inc., priority 2003, dated 2009).
pKi: −log10 of the molar value.

Molecular target: T1, cloned human CCR8 receptor stably expressed in L1.2 cells (Homo sapiens, UniProt P51685)
T1 construct: expressed in transfected cells
Assay: whole cell binding screen: inhibition of biotinylated human I309 binding to CCR8 (FMAT 8100 HTS)
Conditions: Ki of compounds to inhibit I-309 binding to CCR8, L1.2/hCCR8 cells, biotinylated human I-309, 10 point concentration response starting at 10 μM
In short: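 L1.2 murine pre-B cells stably expressing human CCR8 (4.0×10^5 cells/mL) in HBSS/HEPES/fatty-acid-free BSA/azide buffer were mixed with biotinylated human I309 and compounds for 0.5 h, read by FMAT fluorescence. 10-point curves from 10 μM final; percent inhibition normalized to no-inhibitor and 100 nM unlabeled I309 controls.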

T1 sequence (P51685 whole entry): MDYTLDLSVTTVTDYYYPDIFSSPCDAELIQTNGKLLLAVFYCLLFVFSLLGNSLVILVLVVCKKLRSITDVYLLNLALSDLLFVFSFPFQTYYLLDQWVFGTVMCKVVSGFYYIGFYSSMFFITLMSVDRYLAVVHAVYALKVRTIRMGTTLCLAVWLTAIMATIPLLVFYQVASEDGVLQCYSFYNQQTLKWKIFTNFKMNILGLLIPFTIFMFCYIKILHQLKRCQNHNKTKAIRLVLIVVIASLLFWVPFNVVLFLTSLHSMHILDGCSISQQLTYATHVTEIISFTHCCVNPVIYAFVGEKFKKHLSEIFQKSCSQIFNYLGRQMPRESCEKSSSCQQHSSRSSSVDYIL

Row | SMILES | pKi
1 | COCC(=O)N1CCC(NS(=O)(=O)c2ccc(NC(=O)c3ccccc3C)c3ccccc23)CC1 [Compound C-56, N{4-[1-(2-Methoxy-acetyl)-piperidin-4-ylsulfamoyl]-naphthalen-1-yl}-2-methyl-benzamide] | > 6.30
2 | Cc1ccccc1C(=O)Nc1ccc(S(=O)(=O)NC2CCN(C(=O)CO)CC2)c2ccccc12 [Compound C-121, N-{4-[1-(2—Hydroxy-acetyl)-piperidin-4-ylsuffamoyl]-naphthalen-1-yl}-2-methyl-benzamide] | > 6.30

Same assay, conditions: L1.2/hCCR8 cells, biotinylated human I-309, 10 point concentration response starting at 10 μM; read-out: Ki of compounds to inhibit I-309 binding to CCR8

Row | SMILES | pKi
3 | Cc1ccccc1C(=O)Nc1cc(S(=O)(=O)NC2CCN(C(=O)C(C)C)CC2)cc2c1CCCC2 [Compound H-53, N-[3-(1-Isobutyryl-piperidin-4-ylsulfamoyl)-5,6,7,8-tetrahydro-naphthalen-1-yl]-2-methyl-benzamide] | > 4.52
4 | CCCC(=O)N1CC[C@H](NS(=O)(=O)c2ccc(NC(=O)c3ccccc3C)c3ccccc23)[C@H](C)C1 (racemic) [Compound C-139, (±)-cis-N-[4-(1-Butryl-3-methyl-piperidin-4-ylsuffamoyl)-naphthalen-1-yl]-2-methyl-benzamide] | > 6.30
5 | CCCC(=O)N1CC[C@@H](NS(=O)(=O)c2ccc(NC(=O)c3ccccc3C)c3ccccc23)[C@@H](C)C1 (single isomer, unassigned) [Compound C-140, cis-N-[4-(1-butyryl-3-methyl-piperidin-4-ylsulfamoyl)-naphthalen-1-yl]-2-methyl-benzamiide] | > 6.30
6 | Cc1ccccc1C(=O)Nc1ccc(S(=O)(=O)NC2CCCNC2)c2ccccc12 (racemic) [Compound C-112, (±)-2-Methyl-N-[4-(piperidin-3-ylsulfamoyl)-naphthalen-1-yl]-benzamide] | > 6.00
7 | Cc1ccccc1C(=O)Nc1ccc(S(=O)(=O)NC2CCNCC2(C)C)c2ccccc12 (racemic) [Compound C-11, (±)-N-[4-(3,3-Dimethyl-piperidin-4-ylsulfamoyl)-naphthalen-1-yl]-2-methyl-benzamide] | > 6.30
8 | CC(C)(C)OC(=O)N1CCC(NS(=O)(=O)c2ccc(NC(=O)c3ccccc3)c3ccccc23)C1 (stereo not drawn) [Compound A-37, 3-(4-Benzoylamino-naphthalene-1-sulfonylamino)-pyrrolidine-1-carboxylic acid tert-butyl ester] | > 6.30
9 | CCOC(=O)N1[C@@H]2CC[C@H]1C[C@@H](NS(=O)(=O)c1ccc(NC(=O)c3ccccc3C)c3ccccc13)C2 [Compound C-10, cis-3-[4-(2-Methyl-benzoylamino)-naphthalene-1-sulfonylamino]-8-aza-bicyclo[3.2.1]octane-8-carboxylic acid ethyl ester] | > 6.30
10 | CCOC(=O)N1CCC(NS(=O)(=O)c2ccc(NC(=O)c3ccccc3C#N)c3ccccc23)CC1 [Compound B-26, 4-[4-(2-Cyano-benzoylamino)-naphthalene-1-sulfonylamino]-piperidine-1-carboxylic acid ethyl ester] | > 6.30
11 | CCOC(=O)N1CCC(NS(=O)(=O)c2ccc(CNCc3ncc[nH]3)c3ccccc23)CC1 [Compound G-9, 4-(4-{[(lH-Imidazol-2-ylmethyl)-amino]-methyl}-naphthalene-1-sulfonylamino)-piperidine-1-carboxylic acid ethyl ester] | > 4.52
12 | Cc1ccccc1C(=O)Nc1ccc(S(=O)(=O)NC2CCNCC2)c2ccccc12 [Compound C-36, 2-Methyl-N-[4-(piperidin-4-ylsulfamoyl)-naphthalen-1-yl]-benzamide] | > 6.30
13 | O=C(Nc1ccc(S(=O)(=O)NC2CCN(C(=O)C3CCCC3)CC2)c2ccccc12)c1ccccc1 [Compound C-5, N-[4-(1-Cyclopentanecarbonyl-piperidin-4-ylsulfamoyl)-naphthalen-1-yl]-benzamide] | > 6.30
14 | Cc1ccccc1C(=O)Nc1ccc(S(=O)(=O)NC2[C@@H](C)CNC[C@@H]2C)c2ccccc12 (racemic) [Compound C-64, (±)-(cistrans)-N-[4-(3,5-Dimethyl-piperidin-4-ylsulfamoyl)-naphthalen-1-yl]-2-methyl-benzamide] | > 6.30
15 | CCOC(=O)N1C[C@H](C)C(NS(=O)(=O)c2ccc(NC(=O)c3ccccc3C)c3ccccc23)[C@@H](C)C1 (racemic) [Compound C-67, (±)-(cistrans)-3,5-Dimethyl-4-[4-(2-methyl-benzoylamino)-naphthalene-1-sulfonylamino]-piperidine-1-carboxylic acid ethyl ester] | > 6.30
16 | Cc1ccccc1C(=O)Nc1ccc(S(=O)(=O)N[C@@H]2CCN(C(=O)CN3CCCC3)C[C@@H]2C)c2ccccc12 (racemic) [Compound C-142, (±)-2-Methyl-N-{4-[cis-3-methyl-1-(2-pyrrolidin-1-yl-acetyl)-piperidin-4-ylsulfamoyl]-naphthalen-1-yl}-benzamide] | > 6.30
17 | CCCC(=O)N1CC[C@H](NS(=O)(=O)c2ccc(NC(=O)c3c(C)noc3C)c3ccccc23)[C@H](C)C1 (racemic) [Compound D-5, (±)-(cis)-3,5-Dimethyl-isoxazole-4-carboxylic acid [4-(1-butyryl-3-methyl-piperidin-4-ylsulfamoyl)-naphthalen-1-yl]-amide] | > 6.30
18 | CN(C)C(=O)N1CCC(NS(=O)(=O)c2ccc(C(=O)N(C)C3CCCCC3)c3ccccc23)CC1 [Compound F-28, 4-[4-(Cyclohexyl-methyl-carbamoyl)-naphthalene-1-sulfonylamino]-piperidine-1-carboxylic acid dimethylamide] | > 6.30

Row | SMILES | pKi
19 | CCOC(=O)N1CC[C@H](NS(=O)(=O)c2ccc(NC(=O)c3ccccc3C)c3ccccc23)[C@H](CO)C1 (racemic) [Compound C-81, (±)-(cis)-3—Hydroxymethyl-4-[4-(2-methyl-benzoylamino)-naphthalene-1-sulfonylamino]-piperidine-1-carboxylic acid ethyl ester] | > 6.30
20 | CC[C@@H]1CN(C(=O)[C@H](C)N)CC[C@H]1NS(=O)(=O)c1ccc(NC(=O)c2ccccc2C)c2ccccc12 [Compound J-32, (3R, 4R)-N-{4-[1-(2-(S)-Amino-propionyl)-3-ethyl-piperidin-4-ylsulfamoyl]-naphthalen-1-yl}-2-methyl-benzamide] | > 6.30
21 | Cc1ccccc1C(=O)Nc1ccc(S(=O)(=O)N[C@@H]2[C@H](C)CN(C(=O)N(C)C)C[C@@H]2C)c2ccccc12 [Compound C-71, (±)-(cis,cis)-3,5-Dimethyl-4-[4-(2-methyl-benzoylamino)-naphthalene-1-sulfonylamino]-piperidine-1-carboxylic acid dimethylamide] | > 6.00
22 | Cc1ccccc1NC(=O)c1ccc(S(=O)(=O)NC2CCN(C(=O)OC(C)(C)C)CC2)c2ccccc12 [Compound F-4, 4-(4-o-Tolylcarbamoyl-naphthalene-1-sulfonylamino)-piperidine-1-carboxylic acid tert-butyl ester] | > 6.30
23 | Cc1ccccc1C(=O)Nc1ccc(S(=O)(=O)N[C@H]2CCNC[C@@H]2C)c2ccccc12 (racemic) [Compound C-14, (±)-trans-2-MethylN-[4-(3-methyl-piperidin-4-ylsulfamoyl)-naphthalen-1-yl]-benzamide] | > 6.30
24 | Cc1ccccc1C(=O)Nc1ccc(S(=O)(=O)NC2CCNCC2)c2c1CCC2 [Compound H-67, 2-Methyl-N-[7-(piperidin-4-ylsulfamoyl)-indan-4-yl]-benzamide] | > 6.00
25 | Cc1ccccc1C(=O)Nc1ccc(S(=O)(=O)NC2CCN(S(=O)(=O)c3ccccc3)CC2)c2ccccc12 [Compound C-58, N-[4-(1-Benzenesulfonyl-piperidin-4-ylsulfamoyl)-naphthalen-1-yl]-2-methyl-benzamide] | > 6.30
26 | CCCC(=O)N1CCC(NS(=O)(=O)c2cccc3c(C(=O)NC4CCCCC4C)cccc23)CC1 (racemic) [Compound H-29, (±)-5-(1-Butyryl-piperidin-4-ylsulfamoyl)-naphthalene-1-carboxylic acid (2-methyl-cyclohexyl)-amide] | > 6.30
27 | CCCC(=O)N1CCC(NS(=O)(=O)c2cc3c(c(N4C(=O)c5ccccc5C4=O)c2)CCCC3)CC1 [Compound H-60, 4-(1,3-Dioxo-1,3-dihydro-isoindol-2-yl)-5,6,7,8-tetrahydro-naphthalene-2-sulfonic acid (1-butyryl-piperidin-4-yl)-amide] | > 4.52
28 | Cc1ccccc1C(=O)Nc1ccc(S(=O)(=O)NC2CCOCC2)c2c1CCCC2 [Compound E-23, 2-Methyl-N-[4-(tetrahydro-pyran-4-ylsulfamoyl)-5,6,7,8-tetrahydro-naphthalen-1-yl]-benzamide] | > 6.30
29 | O=C(Nc1ccc(S(=O)(=O)Nc2ccncc2)c2ccccc12)c1ccccc1 [Compound A-14, N-[4-(Pyridin-4-ylsulfamoyl)-naphthalen-1-yl]-benzamide] | > 6.30
30 | Cc1ccccc1C(=O)Nc1ccc(S(=O)(=O)N[C@H]2CCNC[C@@H]2C)c2ccccc12 [Compound J-44] | > 6.30
31 | CCCC(=O)N1CC[C@@H](NS(=O)(=O)c2ccc(NC(=O)c3ccccc3C)c3ccccc23)[C@@H](C)C1 (single isomer, unassigned) [Compound C-141, cis-N-[4-(1-butyryl-3-methyl-piperidin-4-ylsuffamoyl)-naphthalen-1-yl]-2-methyl-benzamide] | > 6.00
32 | CCCC(=O)N1CCC(NS(=O)(=O)c2ccc(NC(=O)c3ccc(Cl)cc3Cl)c3ccccc23)CC1 [Compound C-111, N-[4-(1-Butyryl-piperidin-4-ylsulfamoyl)-naphthalen-1-yl]-2,4-dichloro-benzamide] | > 6.30
33 | CCOC(=O)N1CCC(NS(=O)(=O)c2cc3c(c(NC(=O)c4ccccc4C)c2)CCCC3)CC1 [Compound H-59, 4-[4-(2-Methyl-benzoylamino)-5,6,7,8-tetrahydro-naphthalene-2-sulfonylamino]-piperidine-1-carboxylic acid ethyl ester] | > 6.00
